Test results reported in patent US11192865B2, “Benzosulfonyl compounds” (Vivace Therapeutics, Inc., priority 2017, dated 2021).

System: 8XTBD luciferase reporter
Assay: YAP Reporter Assay
Type: cell-based
Conditions: Homo sapiens, HEK-293T; HEK293T cells stably transfected with 8XTBD luciferase reporter and pRLTK; 24-hr incubation; starting from 3 μM, 1:3 dilution, 10 points; read-out: Firefly Luciferase IC50
How it was run: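 HEK293T cells stably carrying the 8XTBD firefly luciferase reporter and TK-renilla control received compounds at a 10-point, 1:3 series from 3 μM (final) in quadruplicate. After 24 h at 37° C, Dual-Glo luminescence was read. IC50 and maximal inhibition were reported separately for firefly and renilla signals.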

| IC50 | Structure (SMILES) |
| --- | --- |
| > 3000 nM | CNS(=O)(=O)c1ccc(NC2CCCCC2)c(-c2ncccc2C)c1 [Compound 78, 4-(cyclohexylamino)-N-methyl-3-(3-methylpyridin-2-yl)benzenesulfonamide] |
| ≤ 100 nM | CNS(=O)(=O)c1ccc(NC2CCCCC2)c(-c2ncccc2F)c1 [Compound 79, 4-(cyclohexylamino)-3-(3-fluoropyridin-2-yl)-N-methylbenzenesulfonamide] |
| 1000 to 3000 nM | CNS(=O)(=O)c1ccc(NC2CCCCC2)c(-c2ncccc2OC)c1 [Compound 80, 4-(cyclohexylamino)-3-(3-methoxypyridin-2-yl)-N-methylbenzenesulfonamide] |
| ≤ 100 nM | CNS(=O)(=O)c1ccc(NC2CCCCC2)c(-n2nccn2)c1 [Compound 81, 4-(Cyclohexylamino)-N-methyl-3-(2H-1,2,3-triazol-2-yl)benzenesulfonamide] |
| ≤ 100 nM | CNS(=O)(=O)c1ccc(NC2CCCCC2)c(-c2cn(C)cn2)c1 [Compound 82, 4-(cyclohexylamino)-N-methyl-3-(1-methyl-1H-imidazol-4-yl)benzenesulfonamide] |
| > 3000 nM | CNS(=O)(=O)c1ccc(NC2CCCCC2)c(-c2cccc(N(C)C)n2)c1 [Compound 83, 4-(cyclohexylamino)-3-(6-(dimethylamino)pyridin-2-yl)-N-methylbenzenesulfonamide] |
| 100 to 1000 nM | CNS(=O)(=O)c1ccc(NC2CCCCC2)c(-c2cc(N)ccn2)c1 [Compound 84, 3-(4-aminopyridin-2-yl)-4-(cyclohexylamino)-N-methylbenzenesulfonamide] |
| 1000 to 3000 nM | CNc1cccc(-c2cc(S(=O)(=O)NC)ccc2NC2CCCCC2)n1 [Compound 85, 4-(cyclohexylamino)-N-methyl-3-(6-(methylamino)pyridin-2-yl)benzenesulfonamide] |
| 100 to 1000 nM | CNS(=O)(=O)c1ccc(NC2CCCCC2)c(-c2nnn(C3CCCN(c4cccnc4)C3)n2)c1 (stereo not shown) [Compound 86, 4-(cyclohexylamino)-N-methyl-3-(2-(1-(pyridin-3-yl)piperidin-3-yl)-2H-tetrazol-5-yl)benzenesulfonamide] |
| ≤ 100 nM | CNS(=O)(=O)c1ccc(NC2CCCCC2)c(-c2cc(N(C)C)ccn2)c1 [Compound 87, 4-(cyclohexylamino)-3-(4-(dimethylamino)pyridin-2-yl)-N-methylbenzenesulfonamide] |
| ≤ 100 nM | CNc1ccnc(-c2cc(S(=O)(=O)NC)ccc2NC2CCCCC2)c1 [Compound 88, 4-(cyclohexylamino)-N-methyl-3-(4-(methylamino)pyridin-2-yl)benzenesulfonamide] |
| > 3000 nM | CNS(=O)(=O)c1ccc(NC2CCCCC2)c(-n2ccnn2)c1 [Compound 89, 4-(cyclohexylamino)-N-methyl-3-(1H-1,2,3-triazol-1-yl)benzenesulfonamide] |
| ≤ 100 nM | CNS(=O)(=O)c1ccc(Nc2ccccc2)c(-c2nnn(C)n2)c1 [Compound 90, N-methyl-3-(2-methyl-2H-tetrazol-5-yl)-4-(phenylamino)benzenesulfonamide] |
| 100 to 1000 nM | CNS(=O)(=O)c1ccc(NC2CCCCC2)c(-c2nc(C)no2)c1 [Compound 91, 4-(cyclohexylamino)-N-methyl-3-(3-methyl-1,2,4-oxadiazol-5-yl)benzenesulfonamide] |
| ≤ 100 nM | CNS(=O)(=O)c1ccc(Nc2cccc(C(F)(F)F)c2)c(-c2nnn(C)n2)c1 [Compound 92, N-methyl-3-(2-methyl-2H-tetrazol-5-yl)-4-((3-(trifluoromethyl)phenyl)amino)benzenesulfonamide] |
| > 3000 nM | CNS(=O)(=O)c1ccc(Nc2ccccc2C(F)(F)F)c(-c2nnn(C)n2)c1 [Compound 93, N-methyl-3-(2-methyl-2H-tetrazol-5-yl)-4-((2-(trifluoromethyl)phenyl)amino)benzenesulfonamide] |
| ≤ 100 nM | CNS(=O)(=O)c1ccc(Nc2cccc(OC(F)(F)F)c2)c(-c2nnn(C)n2)c1 [Compound 94, N-methyl-3-(2-methyl-2H-tetrazol-5-yl)-4-((3-(trifluoromethoxy)phenyl)amino)benzenesulfonamide] |
| ≤ 100 nM | CNS(=O)(=O)c1ccc(Nc2ccc(C(F)(F)F)cc2)c(-c2nnn(C)n2)c1 [Compound 95, N-methyl-3-(2-methyl-2H-tetrazol-5-yl)-4-((4-(trifluoromethyl)phenyl)amino)benzenesulfonamide] |
| > 3000 nM | CNS(=O)(=O)c1ccc(Nc2ccc(C(F)(F)F)cc2)c(-c2nnnn2C)c1 [Compound 96, N-methyl-3-(1-methyl-1H-tetrazol-5-yl)-4-((4-(trifluoromethyl)phenyl)amino)benzenesulfonamide] |
| > 3000 nM | CNS(=O)(=O)c1ccc(Nc2cccc(C(F)(F)F)c2)c(-c2nnnn2C)c1 [Compound 97, N-methyl-3-(1-methyl-1H-tetrazol-5-yl)-4-((3-(trifluoromethyl)phenyl)amino)benzenesulfonamide] |

| IC50 | Structure (SMILES) |
| --- | --- |
| > 3000 nM | CNS(=O)(=O)c1ccc(Nc2ccccc2C(F)(F)F)c(-c2nnnn2C)c1 [Compound 98, N-methyl-3-(1-methyl-1H-tetrazol-5-yl)-4-((2-(trifluoromethyl)phenyl)amino)benzenesulfonamide] |
| > 3000 nM | CNS(=O)(=O)c1ccc(Nc2ccc(OC(F)(F)F)cc2)c(-c2nnnn2C)c1 [Compound 99, N-methyl-3-(1-methyl-1H-tetrazol-5-yl)-4-((4-(trifluoromethoxy)phenyl)amino)benzenesulfonamide] |
| > 3000 nM | CNS(=O)(=O)c1ccc(Nc2cccc(OC(F)(F)F)c2)c(-c2nnnn2C)c1 [Compound 100, N-methyl-3-(1-methyl-1H-tetrazol-5-yl)-4-((3-(trifluoromethoxy)phenyl)amino)benzenesulfonamide] |
| > 3000 nM | CNS(=O)(=O)c1ccc(Nc2ccccc2OC(F)(F)F)c(-c2nnnn2C)c1 [Compound 101, N-methyl-3-(1-methyl-1H-tetrazol-5-yl)-4-((2-(trifluoromethoxy)phenyl)amino)benzenesulfonamide] |
| > 3000 nM | CNS(=O)(=O)c1ccc(Nc2ccccc2OC(F)(F)F)c(-c2nnn(C)n2)c1 [Compound 102, N-methyl-3-(2-methyl-2H-tetrazol-5-yl)-4-((2-(trifluoromethoxy)phenyl)amino)benzenesulfonamide] |
| ≤ 100 nM | CNS(=O)(=O)c1ccc(Nc2ccc(OC(F)(F)F)cc2)c(-c2nnn(C)n2)c1 [Compound 103, N-methyl-3-(2-methyl-2H-tetrazol-5-yl)-4-((4-(trifluoromethoxy)phenyl)amino)benzenesulfonamide] |
| 100 to 1000 nM | CNS(=O)(=O)c1ccc(Nc2cccc(F)c2F)c(-c2nnn(C)n2)c1 [Compound 104, 4-((2,3-difluorophenyl)amino)-N-methyl-3-(2-methyl-2H-tetrazol-5-yl)benzenesulfonamide] |
| ≤ 100 nM | CNS(=O)(=O)c1ccc(NC2CCCCC2)c(-c2nnc(C)o2)c1 [Compound 105, 4-(cyclohexylamino)-N-methyl-3-(5-methyl-1,3,4-oxadiazol-2-yl)benzenesulfonamide] |
| > 3000 nM | CNS(=O)(=O)c1ccc(Nc2cccc(F)c2F)c(-c2nnnn2C)c1 [Compound 106, 4-((2,3-difluorophenyl)amino)-N-methyl-3-(1-methyl-1H-tetrazol-5-yl)benzenesulfonamide] |
| > 3000 nM | CNS(=O)(=O)c1ccc(Nc2cc(F)cc(F)c2)c(-c2nnnn2C)c1 [Compound 107, 4-((3,5-difluorophenyl)amino)-N-methyl-3-(1-methyl-1H-tetrazol-5-yl)benzenesulfonamide] |
| 100 to 1000 nM | CNS(=O)(=O)c1ccc(Nc2cc(F)cc(F)c2)c(-c2nnn(C)n2)c1 [Compound 108, 4-((3,5-difluorophenyl)amino)-N-methyl-3-(2-methyl-2H-tetrazol-5-yl)benzenesulfonamide] |
| > 3000 nM | CNS(=O)(=O)c1ccc(Nc2cc(F)ccc2F)c(-c2nnnn2C)c1 [Compound 109, 4-((2,5-difluorophenyl)amino)-N-methyl-3-(1-methyl-1H-tetrazol-5-yl)benzenesulfonamide] |
| ≤ 100 nM | CNS(=O)(=O)c1ccc(Nc2cc(F)ccc2F)c(-c2nnn(C)n2)c1 [Compound 110, 4-((2,5-difluorophenyl)amino)-N-methyl-3-(2-methyl-2H-tetrazol-5-yl)benzenesulfonamide] |
| ≤ 100 nM | CNS(=O)(=O)c1ccc(NC2CCCCC2)c(-c2cn(C3CC3)cn2)c1 [Compound 111, 4-(cyclohexylamino)-3-(1-cyclopropyl-1H-imidazol-4-yl)-N-methylbenzenesulfonamide] |
| ≤ 100 nM | CCn1cnc(-c2cc(S(=O)(=O)NC)ccc2NC2CCCCC2)c1 [Compound 112, 4-(cyclohexylamino)-3-(1-ethyl-1H-imidazol-4-yl)-N-methylbenzenesulfonamide] |
| ≤ 100 nM | CNS(=O)(=O)c1ccc(NC2CCCCC2)c(-c2cn(C(C)C)cn2)c1 [Compound 113, 4-(cyclohexylamino)-3-(1-isopropyl-1H-imidazol-4-yl)-N-methylbenzenesulfonamide] |
| > 3000 nM | CCn1cncc1-c1cc(S(=O)(=O)NC)ccc1NC1CCCCC1 [Compound 114, 4-(cyclohexylamino)-3-(1-ethyl-1H-imidazol-5-yl)-N-methylbenzenesulfonamide] |
| 100 to 1000 nM | CNS(=O)(=O)c1ccc(Nc2ccc(C(F)(F)F)cc2)c(-c2nnn(CCOCc3ccccc3)n2)c1 [Compound 115, 3-(2-(2-(benzyloxy)ethyl)-2H-tetrazol-5-yl)-N-methyl-4-((4-(trifluoromethyl)phenyl)amino)benzenesulfonamide] |
| ≤ 100 nM | CNS(=O)(=O)c1ccc(Nc2ccc(C(F)(F)F)cc2)c(-c2nnn(CCO)n2)c1 [Compound 116, 3-(2-(2-hydroxyethyl)-2H-tetrazol-5-yl)-N-methyl-4-((4-(trifluoromethyl)phenyl)amino)benzenesulfonamide] |
| 100 to 1000 nM | CNS(=O)(=O)c1ccc(Nc2cccc(F)c2)c(-c2nnn(C)n2)c1 [Compound 117, 4-((3-fluorophenyl)amino)-N-methyl-3-(2-methyl-2H-tetrazol-5-yl)benzenesulfonamide] |
